In ChEMBL document CHEMBL5212743, “Selectivity Literature for EUbOPEN Chemogenomics Library wave 3” (2023):
One block for each compound: values may come before it.

Experiments:
[1] = biological target: D(1A) dopamine receptor (Homo sapiens, UniProt P21728); experiment: Selectivity interaction (GPCR panel (PDSP screen)) EUB0000342a DRD1
[2] = biological target: Histamine H4 receptor (Homo sapiens, UniProt Q9H3N8); experiment: Selectivity interaction (GPCR panel (PDSP screen)) EUB0000342a HRH4
[3] = biological target: D(3) dopamine receptor (Homo sapiens, UniProt P35462); experiment: Selectivity interaction (GPCR panel (PDSP screen)) EUB0000351a DRD3; settings: at 10 µM
[4] = biological target: 5'-AMP-activated protein kinase catalytic subunit alpha-2 (Homo sapiens) (UniProt P54646); experiment: Selectivity interaction (KinomeScan (DiscoverX)) EUB0000351a PRKAA2; settings: at 1 µM
Chain of 5'-AMP-activated protein kinase catalytic subunit alpha-2 (Homo sapiens) (P54646 whole entry, looked up): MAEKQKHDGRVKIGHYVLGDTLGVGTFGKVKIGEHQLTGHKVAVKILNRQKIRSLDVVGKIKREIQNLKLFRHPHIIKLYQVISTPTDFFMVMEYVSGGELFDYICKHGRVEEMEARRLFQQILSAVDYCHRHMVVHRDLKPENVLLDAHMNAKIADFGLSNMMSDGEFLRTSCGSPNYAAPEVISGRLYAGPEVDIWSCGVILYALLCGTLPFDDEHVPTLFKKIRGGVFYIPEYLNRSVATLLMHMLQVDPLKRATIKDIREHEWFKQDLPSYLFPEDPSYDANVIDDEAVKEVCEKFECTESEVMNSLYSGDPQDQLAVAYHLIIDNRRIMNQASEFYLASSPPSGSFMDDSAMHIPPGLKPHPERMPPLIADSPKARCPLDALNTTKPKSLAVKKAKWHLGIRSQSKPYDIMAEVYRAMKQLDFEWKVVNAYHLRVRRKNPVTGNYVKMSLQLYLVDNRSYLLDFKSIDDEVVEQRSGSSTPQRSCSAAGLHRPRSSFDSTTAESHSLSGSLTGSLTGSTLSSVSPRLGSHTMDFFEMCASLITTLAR

[5] = biological target: T1, Serine/threonine-protein kinase TAO3 (Homo sapiens) (UniProt Q9H2K8); experiment: Selectivity interaction (KinomeScan (DiscoverX)) EUB0000351a TAOK3; settings: at 1 µM
T1 sequence (whole entry): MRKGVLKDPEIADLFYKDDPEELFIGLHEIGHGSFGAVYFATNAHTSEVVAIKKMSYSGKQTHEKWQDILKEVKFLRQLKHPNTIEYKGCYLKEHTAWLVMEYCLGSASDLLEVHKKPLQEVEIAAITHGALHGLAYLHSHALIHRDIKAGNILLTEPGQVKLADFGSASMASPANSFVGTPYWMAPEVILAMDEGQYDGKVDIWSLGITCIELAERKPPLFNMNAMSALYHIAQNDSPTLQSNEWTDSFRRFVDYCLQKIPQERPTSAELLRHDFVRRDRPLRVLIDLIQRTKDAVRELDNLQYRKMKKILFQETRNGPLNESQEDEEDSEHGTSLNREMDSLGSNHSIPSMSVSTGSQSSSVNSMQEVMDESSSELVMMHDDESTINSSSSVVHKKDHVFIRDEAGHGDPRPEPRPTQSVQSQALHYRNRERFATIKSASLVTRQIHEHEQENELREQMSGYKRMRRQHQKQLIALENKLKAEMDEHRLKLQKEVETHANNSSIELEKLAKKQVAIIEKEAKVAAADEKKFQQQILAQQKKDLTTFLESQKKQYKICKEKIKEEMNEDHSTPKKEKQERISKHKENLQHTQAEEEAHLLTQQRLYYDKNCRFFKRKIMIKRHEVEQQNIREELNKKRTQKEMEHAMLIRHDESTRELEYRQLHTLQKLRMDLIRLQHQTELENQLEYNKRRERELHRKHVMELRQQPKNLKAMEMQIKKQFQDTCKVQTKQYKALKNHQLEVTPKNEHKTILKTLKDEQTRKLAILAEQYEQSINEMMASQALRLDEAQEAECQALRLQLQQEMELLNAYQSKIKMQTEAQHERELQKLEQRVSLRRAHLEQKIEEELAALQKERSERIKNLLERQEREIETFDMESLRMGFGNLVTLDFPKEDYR

[6] = biological target: cGMP-inhibited 3',5'-cyclic phosphodiesterase 3A (Homo sapiens, UniProt Q14432); experiment: Selectivity interaction (CEREP ligand profiling ) EUB0000351a PDE3A
[7] = biological target: Phosphatidylinositol 4,5-bisphosphate 3-kinase catalytic subunit alpha isoform (Homo sapiens, UniProt P42336); experiment: Selectivity interaction (KinomeScan (DiscoverX)) EUB0000351a PIK3CA; settings: at 1 µM
[8] = biological target: 5-hydroxytryptamine receptor 2B (Homo sapiens, UniProt P41595); experiment: Selectivity interaction (CEREP Wide Ligand screening panel (ion channels, receptors, enzymes)) EUB0000304b HTR2B; settings: at 10 µM
Chain of 5-hydroxytryptamine receptor 2B (P41595 whole entry): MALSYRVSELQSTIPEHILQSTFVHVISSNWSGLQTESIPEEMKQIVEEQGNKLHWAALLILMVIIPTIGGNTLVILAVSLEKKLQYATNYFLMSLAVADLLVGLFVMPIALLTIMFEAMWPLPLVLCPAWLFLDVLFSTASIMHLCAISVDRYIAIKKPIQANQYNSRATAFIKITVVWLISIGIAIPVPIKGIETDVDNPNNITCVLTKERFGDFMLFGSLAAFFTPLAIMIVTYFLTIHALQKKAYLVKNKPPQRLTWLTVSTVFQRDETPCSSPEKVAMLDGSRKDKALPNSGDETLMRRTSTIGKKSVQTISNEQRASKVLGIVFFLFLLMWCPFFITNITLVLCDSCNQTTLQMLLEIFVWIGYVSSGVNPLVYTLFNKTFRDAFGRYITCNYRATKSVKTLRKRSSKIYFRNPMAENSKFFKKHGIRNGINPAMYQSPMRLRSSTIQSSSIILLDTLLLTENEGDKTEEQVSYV

[9] = biological target: Muscarinic acetylcholine receptor M3 (Homo sapiens) (UniProt P20309); experiment: Selectivity interaction (CEREP Wide Ligand screening panel (ion channels, receptors, enzymes)) EUB0000304b CHRM3; settings: at 10 µM
Chain of Muscarinic acetylcholine receptor M3 (Homo sapiens) (P20309 whole entry, looked up): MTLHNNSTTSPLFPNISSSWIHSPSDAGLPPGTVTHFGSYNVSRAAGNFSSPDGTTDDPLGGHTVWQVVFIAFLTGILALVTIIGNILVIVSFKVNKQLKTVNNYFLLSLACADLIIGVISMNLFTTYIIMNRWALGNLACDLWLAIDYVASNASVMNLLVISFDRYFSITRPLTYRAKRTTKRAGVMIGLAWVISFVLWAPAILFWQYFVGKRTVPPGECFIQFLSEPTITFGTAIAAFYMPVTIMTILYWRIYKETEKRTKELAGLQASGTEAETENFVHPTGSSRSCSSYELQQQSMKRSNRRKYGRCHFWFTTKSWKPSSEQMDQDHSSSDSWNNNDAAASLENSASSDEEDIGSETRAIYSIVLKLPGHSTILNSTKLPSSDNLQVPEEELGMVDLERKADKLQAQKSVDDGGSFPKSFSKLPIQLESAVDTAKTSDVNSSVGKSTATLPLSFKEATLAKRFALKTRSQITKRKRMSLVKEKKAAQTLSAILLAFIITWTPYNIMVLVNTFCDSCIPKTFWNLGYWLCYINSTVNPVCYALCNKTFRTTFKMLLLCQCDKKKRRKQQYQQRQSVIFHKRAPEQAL

[10] = biological target: Adenosine receptor A2b (Homo sapiens) (UniProt P29275); experiment: Selectivity interaction (CEREP Wide Ligand screening panel (ion channels, receptors, enzymes)) EUB0000304b ADORA2B; settings: at 10 µM
[11] = biological target: Gastrin/cholecystokinin type B receptor (Homo sapiens) (UniProt P32239); experiment: Selectivity interaction (CEREP Wide Ligand screening panel (ion channels, receptors, enzymes)) EUB0000304b CCKBR; settings: at 10 µM
Chain of Gastrin/cholecystokinin type B receptor (Homo sapiens) (P32239 whole entry): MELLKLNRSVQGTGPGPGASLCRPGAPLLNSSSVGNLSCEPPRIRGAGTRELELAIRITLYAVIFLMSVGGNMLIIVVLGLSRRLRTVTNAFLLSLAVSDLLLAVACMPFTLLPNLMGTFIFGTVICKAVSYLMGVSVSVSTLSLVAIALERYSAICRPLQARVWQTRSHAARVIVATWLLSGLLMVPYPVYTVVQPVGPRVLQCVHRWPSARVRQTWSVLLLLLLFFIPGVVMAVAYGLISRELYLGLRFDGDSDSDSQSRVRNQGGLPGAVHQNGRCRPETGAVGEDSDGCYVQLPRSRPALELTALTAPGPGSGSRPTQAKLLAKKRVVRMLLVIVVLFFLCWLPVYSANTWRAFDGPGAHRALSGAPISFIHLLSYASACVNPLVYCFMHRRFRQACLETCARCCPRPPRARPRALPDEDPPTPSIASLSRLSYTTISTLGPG

[12] = biological target: Melatonin receptor type 1B (Homo sapiens) (UniProt P49286); experiment: Selectivity interaction (CEREP Wide Ligand screening panel (ion channels, receptors, enzymes)) EUB0000304b MTNR1B; settings: at 10 µM
Chain of Melatonin receptor type 1B (Homo sapiens) (P49286 whole entry): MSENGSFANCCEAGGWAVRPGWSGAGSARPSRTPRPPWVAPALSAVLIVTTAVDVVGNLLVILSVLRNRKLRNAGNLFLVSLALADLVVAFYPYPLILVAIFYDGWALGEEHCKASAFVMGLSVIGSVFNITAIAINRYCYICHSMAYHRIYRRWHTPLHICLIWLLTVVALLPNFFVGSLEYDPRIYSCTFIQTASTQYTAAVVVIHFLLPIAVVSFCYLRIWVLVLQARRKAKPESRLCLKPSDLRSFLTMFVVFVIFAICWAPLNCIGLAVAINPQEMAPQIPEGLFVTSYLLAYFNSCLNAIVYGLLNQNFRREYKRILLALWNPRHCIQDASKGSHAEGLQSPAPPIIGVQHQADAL

[13] = biological target: Kappa-type opioid receptor (Homo sapiens, UniProt P41145); experiment: Selectivity interaction (CEREP Wide Ligand screening panel (ion channels, receptors, enzymes)) EUB0000304b OPRK1; settings: at 10 µM
[14] = biological target: Mu-type opioid receptor (Homo sapiens, UniProt P35372); experiment: Selectivity interaction (CEREP Wide Ligand screening panel (ion channels, receptors, enzymes)) EUB0000304b OPRM1; settings: at 10 µM
[15] = biological target: Substance-P receptor (Homo sapiens) (UniProt P25103); experiment: Selectivity interaction (CEREP Wide Ligand screening panel (ion channels, receptors, enzymes)) EUB0000304b TACR1; settings: at 10 µM
[16] = biological target: T2, Prostaglandin G/H synthase 2 (Homo sapiens) (UniProt P35354); experiment: Selectivity interaction (CEREP Wide Ligand screening panel (ion channels, receptors, enzymes)) EUB0000304b PTGS2; settings: at 10 µM
T2 sequence (whole entry): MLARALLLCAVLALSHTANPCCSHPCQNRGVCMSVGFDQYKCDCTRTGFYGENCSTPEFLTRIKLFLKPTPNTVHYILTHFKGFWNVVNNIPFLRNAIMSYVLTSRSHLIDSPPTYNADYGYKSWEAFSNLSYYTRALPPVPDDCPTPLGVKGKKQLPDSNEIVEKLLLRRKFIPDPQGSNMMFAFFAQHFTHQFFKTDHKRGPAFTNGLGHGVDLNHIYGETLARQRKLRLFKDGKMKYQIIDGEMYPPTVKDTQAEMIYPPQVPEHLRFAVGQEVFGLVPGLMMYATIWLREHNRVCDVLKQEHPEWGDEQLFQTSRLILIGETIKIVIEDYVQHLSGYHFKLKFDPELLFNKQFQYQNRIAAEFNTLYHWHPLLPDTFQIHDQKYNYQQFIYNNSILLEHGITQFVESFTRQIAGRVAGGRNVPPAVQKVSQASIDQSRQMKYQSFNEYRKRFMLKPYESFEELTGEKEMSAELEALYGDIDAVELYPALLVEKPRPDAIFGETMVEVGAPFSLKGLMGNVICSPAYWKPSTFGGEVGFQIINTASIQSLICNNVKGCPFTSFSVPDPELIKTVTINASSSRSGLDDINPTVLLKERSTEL

[17] = biological target: High affinity choline transporter 1 (Homo sapiens) (UniProt Q9GZV3); experiment: Selectivity interaction (CEREP Wide Ligand screening panel (ion channels, receptors, enzymes)) EUB0000304b SLC5A7; settings: at 10 µM
[18] = biological target: Sodium channel protein type 2 subunit alpha (Homo sapiens, UniProt Q99250); experiment: Selectivity interaction (CEREP Wide Ligand screening panel (ion channels, receptors, enzymes)) EUB0000304b SCN2A; settings: at 10 µM
Chain of Sodium channel protein type 2 subunit alpha (Q99250 whole entry, looked up): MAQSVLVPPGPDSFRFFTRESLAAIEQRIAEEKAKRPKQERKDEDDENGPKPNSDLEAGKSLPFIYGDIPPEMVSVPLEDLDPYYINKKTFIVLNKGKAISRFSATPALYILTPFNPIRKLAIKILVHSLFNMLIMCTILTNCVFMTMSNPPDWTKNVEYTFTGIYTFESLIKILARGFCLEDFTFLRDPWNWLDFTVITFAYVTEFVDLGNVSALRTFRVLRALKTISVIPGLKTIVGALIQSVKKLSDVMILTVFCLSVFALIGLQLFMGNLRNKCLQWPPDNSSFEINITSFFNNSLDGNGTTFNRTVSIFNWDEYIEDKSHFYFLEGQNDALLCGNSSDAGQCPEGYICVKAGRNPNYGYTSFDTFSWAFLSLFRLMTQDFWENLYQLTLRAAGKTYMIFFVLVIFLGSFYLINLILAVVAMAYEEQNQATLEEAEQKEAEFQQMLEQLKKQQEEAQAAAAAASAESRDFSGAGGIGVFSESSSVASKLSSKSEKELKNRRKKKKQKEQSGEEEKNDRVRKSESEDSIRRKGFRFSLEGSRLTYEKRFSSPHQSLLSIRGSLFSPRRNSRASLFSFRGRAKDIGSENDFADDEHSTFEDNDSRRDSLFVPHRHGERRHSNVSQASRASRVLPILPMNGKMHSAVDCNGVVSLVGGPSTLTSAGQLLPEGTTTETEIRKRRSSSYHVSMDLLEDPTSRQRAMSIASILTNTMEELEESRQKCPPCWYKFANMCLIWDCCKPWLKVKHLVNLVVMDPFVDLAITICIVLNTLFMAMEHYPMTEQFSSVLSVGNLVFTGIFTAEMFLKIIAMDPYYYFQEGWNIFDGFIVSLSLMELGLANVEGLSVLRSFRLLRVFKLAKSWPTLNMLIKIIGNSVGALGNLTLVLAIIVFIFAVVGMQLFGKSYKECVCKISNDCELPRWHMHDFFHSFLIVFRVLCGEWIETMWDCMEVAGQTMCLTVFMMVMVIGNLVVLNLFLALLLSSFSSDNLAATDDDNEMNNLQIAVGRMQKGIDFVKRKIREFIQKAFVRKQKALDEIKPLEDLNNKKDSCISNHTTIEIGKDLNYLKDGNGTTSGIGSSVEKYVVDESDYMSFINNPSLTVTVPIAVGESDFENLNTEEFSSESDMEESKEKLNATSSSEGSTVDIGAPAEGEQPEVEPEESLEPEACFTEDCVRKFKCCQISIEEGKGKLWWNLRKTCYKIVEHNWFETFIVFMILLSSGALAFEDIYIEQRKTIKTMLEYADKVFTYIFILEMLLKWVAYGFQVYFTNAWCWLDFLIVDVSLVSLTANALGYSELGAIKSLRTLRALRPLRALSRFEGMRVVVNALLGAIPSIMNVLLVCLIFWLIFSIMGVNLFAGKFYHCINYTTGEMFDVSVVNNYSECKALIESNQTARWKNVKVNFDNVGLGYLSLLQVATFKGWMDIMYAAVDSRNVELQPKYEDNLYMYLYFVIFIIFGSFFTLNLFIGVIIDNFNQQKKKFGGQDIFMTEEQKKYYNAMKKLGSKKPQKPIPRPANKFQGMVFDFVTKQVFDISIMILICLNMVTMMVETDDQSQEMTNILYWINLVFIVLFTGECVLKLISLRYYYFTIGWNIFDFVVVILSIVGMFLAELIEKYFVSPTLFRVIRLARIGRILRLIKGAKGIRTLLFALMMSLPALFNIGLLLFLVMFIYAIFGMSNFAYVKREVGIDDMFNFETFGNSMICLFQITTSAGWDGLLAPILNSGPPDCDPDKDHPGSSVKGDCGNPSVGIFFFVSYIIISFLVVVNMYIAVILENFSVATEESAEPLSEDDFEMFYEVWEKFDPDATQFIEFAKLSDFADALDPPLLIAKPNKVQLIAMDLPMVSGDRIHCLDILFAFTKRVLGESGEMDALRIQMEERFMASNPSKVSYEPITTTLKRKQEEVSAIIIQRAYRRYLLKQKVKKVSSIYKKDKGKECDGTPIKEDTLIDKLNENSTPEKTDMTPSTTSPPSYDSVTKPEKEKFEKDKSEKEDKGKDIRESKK

[19] = biological target: T3, Gamma-aminobutyric acid receptor subunit alpha-1 (Homo sapiens, UniProt P14867); experiment: Selectivity interaction (GPCR panel (PDSP screen)) EUB0000304b GABRA1
T3 sequence (P14867 whole entry): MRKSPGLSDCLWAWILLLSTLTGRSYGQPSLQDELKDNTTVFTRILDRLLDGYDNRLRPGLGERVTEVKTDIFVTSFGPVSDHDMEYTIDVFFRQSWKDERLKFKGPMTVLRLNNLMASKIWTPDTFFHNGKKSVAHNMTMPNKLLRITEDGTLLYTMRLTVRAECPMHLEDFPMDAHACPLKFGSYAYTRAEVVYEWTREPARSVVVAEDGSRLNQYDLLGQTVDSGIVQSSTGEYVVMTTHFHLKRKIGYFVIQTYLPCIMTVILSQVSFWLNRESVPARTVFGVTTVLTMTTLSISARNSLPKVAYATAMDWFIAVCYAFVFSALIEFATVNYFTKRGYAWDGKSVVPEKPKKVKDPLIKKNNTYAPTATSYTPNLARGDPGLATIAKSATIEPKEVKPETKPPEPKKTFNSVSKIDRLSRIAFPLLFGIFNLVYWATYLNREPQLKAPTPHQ

Chain of D(1A) dopamine receptor (P21728 whole entry): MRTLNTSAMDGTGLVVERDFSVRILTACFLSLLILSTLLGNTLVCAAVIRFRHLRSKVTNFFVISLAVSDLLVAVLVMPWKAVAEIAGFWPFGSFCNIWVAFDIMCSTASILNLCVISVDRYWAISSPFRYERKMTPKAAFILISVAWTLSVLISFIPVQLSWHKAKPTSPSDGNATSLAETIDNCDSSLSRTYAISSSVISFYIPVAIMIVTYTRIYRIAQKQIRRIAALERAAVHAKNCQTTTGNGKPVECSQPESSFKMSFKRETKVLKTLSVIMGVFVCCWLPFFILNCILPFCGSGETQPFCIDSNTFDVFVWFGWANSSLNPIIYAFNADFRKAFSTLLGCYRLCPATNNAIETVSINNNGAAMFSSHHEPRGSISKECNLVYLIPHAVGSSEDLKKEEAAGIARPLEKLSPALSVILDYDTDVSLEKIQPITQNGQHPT

Ki [1]: > 10 µM | Ki [2]: > 10 µM
Compound: O=C(c1ccc(F)cc1)N1CC(COc2ccc(Br)cc2)(C(=O)O)C1 [PF-04475866]

% of inhibition [3]: 33% | % of control [4]: 28% | % of control [5]: 35% | IC50 [6]: 3.5 µM | % of control [7]: 42%
Compound: COc1ccc2cc(OCC3(C(=O)O)CN(C(=O)c4ccc(F)cc4)C3)ccc2c1 [PF-04418948]

% of effect [8]: 26% | % of effect [9]: 21% | % of effect [10]: 21% | % of effect [11]: 35% | % of effect [12]: 32% | % of effect [13]: 20% | % of effect [14]: 25% | % of effect [15]: 18% | % of effect [16]: 21% | % of effect [17]: 22% | % of effect [18]: 32% | Ki [19]: 1020 nM
Compound: C[C@H](c1ccc(F)cc1)N(Cc1cccc(C(=O)O)c1)C(=O)c1cnc2ccccc2c1 [PF-05105679]
